Results from ChEMBL document CHEMBL1201862, “PubChem BioAssay data set” (2004).
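The compound was tested at five concentrations on cells cultured in 96-well plates, with a 48-hour exposure period. Here, GI50 denotes the concentration required for 50% inhibition of growth.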 Calls of active or inactive are those of the source. Rule as the data show it: active = GI50 up to about 1.1 µM and inactive = higher.

Columns and labels:
Assay in all cases: NCI anticancer screen, dose series, 48 h
OVCAR-3 = system: OVCAR-3
MCF7 = system: MCF7
786-0 = system: 786-0
SW-620 = system: SW-620
NCI-H522 = system: NCI-H522
PC-3 = system: PC-3
IGROV-1 = system: IGROV-1
Malme-3M = system: Malme-3M
HOP-62 = system: HOP-62
HT-29 = system: HT-29
NCI-H23 = system: NCI-H23
LOX IMVI = system: LOX IMVI
KM12 = system: KM12
MDA-MB-435 = system: MDA-MB-435
SK-MEL-2 = system: SK-MEL-2
HCC 2998 = system: HCC 2998
DU-145 = system: DU-145
SK-OV-3 = system: SK-OV-3
SNB-19 = system: SNB-19
T47D = system: T47D

Measured: GI50

Cc1sc2nc(-c3cc([N+](=O)[O-])c(Cl)cc3Cl)c(/C=N/NC(=N)N)n2c1C
inactive: OVCAR-3 4.06 µM | MCF7 2.86 µM | 786-0 5.46 µM | SW-620 13.6 µM | NCI-H522 8.47 µM | PC-3 5.69 µM | IGROV-1 2.34 µM | Malme-3M 13.8 µM | HOP-62 7.66 µM | HT-29 3.25 µM | NCI-H23 4.08 µM | LOX IMVI 2.29 µM | KM12 3.63 µM | MDA-MB-435 3.72 µM | SK-MEL-2 1.97 µM | HCC 2998 2.34 µM | DU-145 14.5 µM

C=CCN(CC=C)Cn1c(=S)sc2ccccc21
inactive: OVCAR-3 > 100 µM | MCF7 > 100 µM | SK-OV-3 91.4 µM | 786-0 > 100 µM | SW-620 48.8 µM | NCI-H522 18.7 µM | PC-3 > 100 µM | IGROV-1 36.6 µM | HOP-62 > 100 µM | NCI-H23 > 100 µM | LOX IMVI 17.8 µM | KM12 > 100 µM | MDA-MB-435 > 100 µM | SK-MEL-2 > 100 µM | HCC 2998 > 100 µM | DU-145 > 100 µM | SNB-19 > 100 µM

O=C(O)c1ccc([C@@H]2C(=O)N(O)[C@@H]3C=CC[C@@H]32)cc1
inactive: OVCAR-3 > 100 µM | SK-OV-3 > 100 µM | 786-0 > 100 µM | SW-620 > 100 µM | NCI-H522 > 100 µM | IGROV-1 > 100 µM | Malme-3M > 100 µM | HOP-62 > 100 µM | HT-29 > 100 µM | NCI-H23 > 100 µM | LOX IMVI > 100 µM | KM12 > 100 µM | SK-MEL-2 > 100 µM | HCC 2998 > 100 µM | SNB-19 > 100 µM

CCOc1ccc(NC(=O)/C(=N\N)C(C(=O)OC)c2nc3ccc(Cl)cc3nc2O)cc1 (centres undefined)
inactive: OVCAR-3 > 100 µM | MCF7 > 100 µM | SK-OV-3 > 100 µM | 786-0 > 100 µM | SW-620 > 100 µM | T47D > 100 µM | NCI-H522 > 100 µM | PC-3 > 100 µM | IGROV-1 79.1 µM | Malme-3M > 100 µM | HOP-62 > 100 µM | HT-29 > 100 µM | NCI-H23 > 100 µM | LOX IMVI > 100 µM | KM12 > 100 µM | MDA-MB-435 > 100 µM | SK-MEL-2 > 100 µM | HCC 2998 > 100 µM

COc1cc(C2C(C(=O)Nc3ccc(Cl)c(Cl)c3)=C(C)NC(C)=C2C(=O)Nc2ccc(Cl)c(Cl)c2)ccc1O
inactive: OVCAR-3 9.82 µM | SK-OV-3 14.8 µM | 786-0 12.7 µM | SW-620 12.3 µM | NCI-H522 3.65 µM | IGROV-1 14.2 µM | Malme-3M 12.6 µM | HOP-62 11 µM | HT-29 15.1 µM | NCI-H23 12.5 µM | LOX IMVI 11.4 µM | KM12 11.7 µM | SK-MEL-2 8.17 µM | HCC 2998 11.4 µM | SNB-19 12.3 µM

COc1cc2c(cc1OC)C(C#N)N(C(=O)c1ccccc1)C=C2OC(=O)c1ccccc1 (centres undefined)
inactive: OVCAR-3 21.3 µM | SK-OV-3 65.8 µM | 786-0 18.1 µM | SW-620 33 µM | NCI-H522 17.2 µM | IGROV-1 24.8 µM | Malme-3M 25.3 µM | HOP-62 17.6 µM | HT-29 48.5 µM | NCI-H23 44.9 µM | LOX IMVI 39.4 µM | KM12 34.4 µM | SK-MEL-2 22.6 µM | HCC 2998 45.1 µM | SNB-19 23.6 µM

CCOC(=O)C(Cc1ccccc1)NC(=O)c1ccc(/N=N/N(C)C)cc1 (centres undefined)
inactive: OVCAR-3 > 100 µM | SK-OV-3 > 100 µM | 786-0 > 100 µM | SW-620 > 100 µM | NCI-H522 > 100 µM | IGROV-1 > 100 µM | Malme-3M > 100 µM | HOP-62 > 100 µM | HT-29 > 100 µM | NCI-H23 > 100 µM | LOX IMVI > 100 µM | KM12 > 100 µM | SK-MEL-2 > 100 µM | HCC 2998 > 100 µM | SNB-19 > 100 µM

O=c1[nH]n(Cc2ccccc2Cl)c2ccc([N+](=O)[O-])cc12
inactive: OVCAR-3 35.9 µM | 786-0 46.6 µM | SW-620 53.7 µM | NCI-H522 36.1 µM | IGROV-1 61.9 µM | Malme-3M 47.3 µM | HOP-62 75.9 µM | HT-29 72.9 µM | NCI-H23 49.8 µM | LOX IMVI > 100 µM | KM12 63.5 µM | MDA-MB-435 3.98 µM | SK-MEL-2 34.7 µM | HCC 2998 50.1 µM | DU-145 > 100 µM | SNB-19 80 µM

CN1c2ccccc2N(C(=O)c2ccccc2)C(CC(=O)O)c2cccn21 (centres undefined)
inactive: OVCAR-3 > 100 µM | SK-OV-3 > 100 µM | 786-0 > 100 µM | SW-620 > 100 µM | NCI-H522 > 100 µM | IGROV-1 > 100 µM | Malme-3M > 100 µM | HOP-62 > 100 µM | HT-29 > 100 µM | NCI-H23 > 100 µM | LOX IMVI > 100 µM | KM12 > 100 µM | SK-MEL-2 > 100 µM | HCC 2998 > 100 µM | SNB-19 > 100 µM

CC(C)(C)OC(=O)N[C@H]1CC(=O)c2ccccc2N(CC(=O)O)C1=O
inactive: OVCAR-3 > 100 µM | SK-OV-3 > 100 µM | 786-0 > 100 µM | SW-620 > 100 µM | NCI-H522 > 100 µM | IGROV-1 > 100 µM | Malme-3M 19.9 µM | HOP-62 > 100 µM | HT-29 > 100 µM | NCI-H23 > 100 µM | LOX IMVI > 100 µM | KM12 > 100 µM | SK-MEL-2 > 100 µM | HCC 2998 > 100 µM | SNB-19 > 100 µM

Cc1cc(OC(=O)Nc2ccc(Cl)cc2)ccc1C(=S)Nc1ccccc1
inactive: OVCAR-3 50.6 µM | MCF7 34.9 µM | SK-OV-3 > 100 µM | 786-0 80 µM | SW-620 > 100 µM | T47D 34.2 µM | NCI-H522 21.6 µM | PC-3 > 100 µM | IGROV-1 > 100 µM | Malme-3M 53 µM | HOP-62 > 100 µM | HT-29 24.5 µM | LOX IMVI 29.3 µM | KM12 8.93 µM | MDA-MB-435 54 µM | SK-MEL-2 66.2 µM | HCC 2998 26.3 µM | SNB-19 > 100 µM

CC(C)(C)C1CC[C@H](O)[C@H]([C@H](O)CC2CC(=O)N(c3ccccc3)C(=O)C2)C1 (some centres undefined)
inactive: OVCAR-3 > 100 µM | MCF7 > 100 µM | 786-0 > 100 µM | SW-620 > 100 µM | NCI-H522 > 100 µM | PC-3 > 100 µM | IGROV-1 > 100 µM | Malme-3M > 100 µM | HOP-62 74.6 µM | HT-29 > 100 µM | NCI-H23 91.6 µM | LOX IMVI > 100 µM | KM12 > 100 µM | MDA-MB-435 > 100 µM | HCC 2998 > 100 µM | DU-145 > 100 µM | SNB-19 > 100 µM

COc1ccc2[nH]cc(CCNC(=O)[C@H](Cc3ccc(O)cc3)NC(=O)[C@@H](NCC(F)(F)F)C(C)C)c2c1
inactive: OVCAR-3 20.1 µM | MCF7 35.5 µM | SK-OV-3 > 100 µM | 786-0 > 100 µM | SW-620 > 100 µM | NCI-H522 26.5 µM | PC-3 > 100 µM | IGROV-1 97.7 µM | Malme-3M > 100 µM | HOP-62 > 100 µM | HT-29 52.5 µM | NCI-H23 > 100 µM | LOX IMVI 25.2 µM | KM12 > 100 µM | MDA-MB-435 25.2 µM | SK-MEL-2 58.2 µM | DU-145 > 100 µM | SNB-19 > 100 µM

CC[C@H]1C=CCC[C@@]2(C[C@@H]3CC[C@H]4[C@@H](C(=O)OCCCCCCCCCCCCCCCC(=O)N(CCCN)C[C@@H](O)CCN)[C@@]5(CCC[C@@H](C)O5)NC(=[N+]34)N2)O1
inactive: OVCAR-3 3.91 µM | MCF7 1.62 µM | SK-OV-3 1.8 µM | 786-0 1.88 µM | SW-620 2.12 µM | NCI-H522 1.66 µM | PC-3 1.62 µM | IGROV-1 1.74 µM | Malme-3M 1.67 µM | HOP-62 1.69 µM | HT-29 1.61 µM | NCI-H23 1.78 µM | LOX IMVI 1.91 µM | KM12 1.57 µM | MDA-MB-435 1.55 µM | SK-MEL-2 1.7 µM | HCC 2998 1.73 µM | DU-145 1.8 µM

O=C(CSc1nc(-c2ccccc2)c(-c2ccccc2)[nH]1)NNC(=S)Nc1ccccc1
inactive: OVCAR-3 59.8 µM | SK-OV-3 > 100 µM | 786-0 > 100 µM | SW-620 > 100 µM | NCI-H522 19.2 µM | IGROV-1 82.4 µM | Malme-3M > 100 µM | HOP-62 > 100 µM | HT-29 69.2 µM | NCI-H23 > 100 µM | LOX IMVI 71 µM | KM12 > 100 µM | SK-MEL-2 > 100 µM | HCC 2998 > 100 µM | SNB-19 > 100 µM
